Assay results: patent publication US12349708B2, “Use and methods of 1,3-propanediol to improve taste and/or off-taste qualities” (Primient Covation LLC, priority 2019, dated 2025)

System: descriptive panel of 8 panelists
Assay: Descriptive analysis of 5HE, BANG and energy shot prototype drinks with and without bioPDO (Example 6)
Type: in vivo, human
Settings: addition of bioPDO (0.1%)
Method: A formal sensory testing called descriptive analysis (DA) was performed by 8 trained panelists in triplicate (n=24) on energy shot prototype, BANG prototype samples, and 5HE SHOT prototype samples with & without bioPDO. All samples were served to panelists at ambient temperature 20±2° C.
A qualified descriptive panel of 8 panelists, experienced in the sensory analysis of a range of products, was used for this research.
The protocol for descriptive analysis was divided into two distinct phases. 1) During the panel orientation phase, panelists tasted the samples and formulated a lexicon of descriptive taste, mouthfeel, aftertaste and after feel attributes to describe them. A final list of 3 taste, 3 mouthfeel, 3 aftertaste and 1 after feel attributes were determined (Table 37). During the sample testing phase, which took place over 2 separate days, the products were evaluated in triplicate (total evaluations n=24). […]
Following consumption of the 1st sip, panelists assessed the attribute ‘initial harshness mouthfeel’. The remaining attributes (including ‘harshness mouthfeel’) were then measured by panelists on the 2nd sip. Aftertaste/feel attributes were measured 30 seconds after ingestion of the 2nd sip. […]
The sensory attributes of the products were scored on unstructured 10 cm line scales labeled at both ends with extremes of each descriptive term. […]

OCCCO [PDO, 1,3-propanediol]
overall taste quality of energy shots/drink: significantly improves overall taste quality
